Results as given in patent publication US7629310B2, “RhoB as a suppressor of cancer cell growth, cell transformation, and metastasis” (University of South Florida, priority 2000, dated 2009).

What was measured:
Assay type in all cases: cell-based
RhoB protein levels = experiment: RhoB protein level by Western blotting in NIH3T3 cells; conditions: NIH3T3, 5-FU for 36 hrs (FIG. 2C)
Procedure: NIH3T3 cells were transiently transfected with various oncogenes or pcDNA3 vector control and cultured for 36 hrs; the pcDNA3-transfected cells were treated by either DMSO or 5-FU for 36 hrs. The cells were then lysed and analyzed for transfection efficiency by Western blotting with anti-HA or anti-Src antibody and for RhoB protein level with anti-RhoB antibody. […] NIH3T3 cells were transiently transfected with various Ras oncogenes or pcDNA3 vector control for 12 hrs, then treated by either DMSO, or 5-FU for another 36 hrs. The whole cell lysates were analyzed for RhoB protein level by Western blotting with anti-RhoB antibody.
Western Blot Analysis. Whole cell lysates were prepared in a lysis buffer containing 20 mM Tris-HCl (pH 7.5), 150 mM NaCl, 1% NP-40, 1 mM phenylmethylsulfonyl fluoride, 1.5 μg each of aprotinin and leupeptin per ml, 10 mM NaF, 10 mM NaPPi, 3 mM sodium vanadate, and 15 mM lycerolphosphate. Lysates were incubated 30 min on ice and centrifuged at 13,000×g for 10 min at 4° C. prior to SDS-PAGE and Western blotting. 50 μg of lysates was loaded for each sample.

RhoB promoter = RhoB promoter transcriptional activity in H-Ras/3T3 cells; conditions: treated 12 hours (FIG. 6B)
Source text: The cell lysates were processed as in FIGS. 5A-5D. […] The cell lysates were processed as in FIGS. 5A-5D. […] The cell lysates were processed as in FIGS. 5A-5D. Gene Constructs and RhoB Promoter Transcriptional Activity Assay. Constitutively active H-Ras61L, K-RasV12, N-RasV12, and dominant negative […]-Ras were kind gifts from Dr. Channing Der (University of North Carolina) (Khosravi-Far, R. et al., Mol Cell Biol, 1995, 15:6443-53; Quilliam, L. A. et al., Mol Cell Biol, 1994, 14:1113-21). Wild-type RhoA and RhoB were subcloned into hemaglutinin (HA)-tagged pcDNA3 (INVITROGEN). The orientation and the sequences of these genes were confirmed by DNA sequencing facilities at the H. Lee Moffitt Cancer Center, Tampa, Fla. RhoB promoter construct pGEI was kindly provided by Dr Y. Monden (Banyu Tsukuba Research, Japan) (Nakamura et al., 1996). pCMV-β-galactosidase vector was purchased from INVITROGEN. The plasmid containing CA-, DN-PI3K, Mek and Akt were kindly provided by Dr. Julie Y. Djeu (H. Lee Moffitt Cancer and Research Institute, Tampa, Fla.) (Jiang, K. et al., Blood, 2003, 101:236-44). β-galactosidase activity and luciferase assay kits were purchased from PROMEGA Corporation, Madison, Wis. […] The RhoB promoter transcriptional activity was determined by dividing the luciferase/β-Gal values from oncogene-transfected cells by those from pcDNA3-transfected cells. […]

H-Ras/3T3 cells = experiment: Invasion through […]-coated transfilters, H-Ras/3T3 cells; conditions: H-Ras/3T3 cells (FIG. 9A)
Procedure: HRas/3T3 cells (FIG. 9A) and PANC-1 cells (FIG. 9B) were transiently transfected with pcDNA3 vector control, H-Ras61L, CA-Akt, or WT-Akt in the presence or absence of RhoA, RhoB, or pcDNA3 for 36 hours. The cells were then split and analyzed for their invading capabilities through […]-coated transfilters as described in the Materials and Methods section. PANC-1 and PC3 cells (FIG. 9C) were transiently transfected with pcDNA3, with H-Ras61L in the presence or absence of RhoA, or RhoB for 36 hours. The cells were then serum-starved for another 36 hours; the conditioned medium was collected and 20 μg protein were analyzed for MMP-2 expression by Western Blotting.
Whether RhoB can also antagonize cell invasion was evaluated. To this end, H-Ras/3T3 and PANC-1 cells were similarly transfected as above with various oncogenes along with RhoA or RhoB, then seeded onto […]-coated poly-hydrocarbonate filters mounted in the middle of a Boyden transwell apparatus as described under Methods. […] Furthermore, transfection with CA-Akt or WT-Akt enhanced invasion; and RhoB, not RhoA, inhibited this enhancement of invasion (FIGS. 9A and 9B).

Row | Molecule | induction of RhoB protein levels (RhoB protein levels) [fold] | induction of RhoB promoter activity (RhoB promoter) | invasion through MATRIGEL (H-Ras/3T3 cells)
1 | O=c1[nH]cc(F)c(=O)[nH]1 [5-FU, 5-fluorouracil] | 3 | little effect | 
2 | RhoA: closely related family member sharing 86% sequence identity with RhoB; wild-type, in HA-tagged pcDNA3, transfected as control |  |  | invaded
